Experimental data: PubChem BioAssay (NCI)
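Step 1: Grow cells in 96-well plates. Step 2: Expose to compound for 48 hours at 5 concentrations. Step 3: Interpolate endpoints linearly; if unreached, use highest concentration. TGI: total growth inhibition.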

Columns and labels:
Test in all cases: growth of human tumour cells (NCI), 48 h
786-0 renal = tested on: 786-0 renal
A498 renal = tested on: A498 renal
A549 NSCLC = tested on: A549 NSCLC
ACHN renal = tested on: ACHN renal
HCT-116 colon = tested on: HCT-116 colon
HCT-15 colon = tested on: HCT-15 colon
HOP-92 NSCLC = tested on: HOP-92 NSCLC
K-562 leukemia = tested on: K-562 leukemia
MALME-3M melanoma = tested on: MALME-3M melanoma
OVCAR-4 ovarian = tested on: OVCAR-4 ovarian
OVCAR-5 ovarian = tested on: OVCAR-5 ovarian
RXF 393 renal = tested on: RXF 393 renal
SF-539 CNS = tested on: SF-539 CNS
SK-MEL-5 melanoma = tested on: SK-MEL-5 melanoma
U251 CNS = tested on: U251 CNS
UO-31 renal = tested on: UO-31 renal

Structure (SMILES)	TGI (786-0 renal) [µM]	TGI (A498 renal) [µM]	TGI (A549 NSCLC) [µM]	TGI (ACHN renal) [µM]	TGI (HCT-116 colon) [µM]	TGI (HCT-15 colon) [µM]	TGI (HOP-92 NSCLC) [µM]	TGI (K-562 leukemia) [µM]	TGI (MALME-3M melanoma) [µM]	TGI (OVCAR-4 ovarian) [µM]	TGI (OVCAR-5 ovarian) [µM]	TGI (RXF 393 renal) [µM]	TGI (SF-539 CNS) [µM]	TGI (SK-MEL-5 melanoma) [µM]	TGI (U251 CNS) [µM]	TGI (UO-31 renal) [µM]
Cc1ccc(-n2cc(-c3ccc(Cl)cc3)c3c(N/N=C4\SCC(=O)N4C)ncnc32)cc1	10.6	31.3	26.6	> 100	38.4	> 100	8.24	> 100	9.48	8.03	> 100	48.1	33.9	15.5	36.5	> 100
CCCCCCCCCCCCc1ccc(S(=O)(=O)O)cc1.[Zn+2]	> 100	95.9	> 100	> 100	> 100	> 100	> 100	> 100	> 100	> 100	> 100	> 100	> 100	> 100	> 100	> 100
CCOC(=O)C[n+]1cccc(C2(c3cc4ccccc4[nH]3)OCCO2)c1	> 100	> 100	> 100	> 100	> 100	> 100	> 100	> 100	> 100	> 100	> 100	> 100	> 100	> 100	> 100	> 100
O=c1[nH]c(=O)n(C2CC(O)C(CO)O2)cc1NN=NCCCc1ccccc1 (centres undefined)	> 100	> 100	> 100	> 100	> 100	> 100	> 100	–	> 100	> 100	> 100	> 100	> 100	> 100	–	–
C/C(=C\c1ccccc1)C(=O)NCc1ccc(C(=O)NCCc2ccccc2)cc1	> 100	> 100	> 100	> 100	> 100	> 100	99.1	> 100	> 100	> 100	> 100	41.4	> 81.9	> 100	> 100	> 100
COc1cc(O)c2c(=O)c3c(C)cccc3n(C)c2c1	> 10	> 10	> 10	> 10	> 10	> 10	> 10	> 10	> 10	> 10	> 10	> 10	> 10	> 10	> 10	> 10
CCOC(=O)C(CC(C)C)NC(=O)CSc1nnc(COc2ccc(Cl)cc2)n1-c1ccccc1 (centres undefined)	28.6	28.2	45.9	26	28	37.1	39.8	> 100	37.8	36.2	39.4	34.3	42.3	32.6	33.4	3.68
